# Source: EP0715517B1, “ESTRENE STEROIDS AS NEU[…] CHANGE IN HUMAN HY[…] AND RELATED PHARMACEUTICAL COMPOSITIONS” (priority 1993, dated 1994)
# “Also recorded” adds a separate entry of the source.
# Legend:
# VNO [1] = settings: 2% lidocaine applied to the respiratory epithelium of the nasal septum; preliminary evidence, Monti-Bloch and Grosser 1991; cited from earlier work
# VNO [2] = experiment: Comparison of the change in receptor potential induced by two Estrene steroids (Example 23); format: in vivo, human; settings: 60 picograms; a subject; Fig. 5
# Description: 60 picograms of each steroid and of a propylene glycol control were administered to a subject as described in Example 21.
# VNO [3] = experiment: Electro-vomeronasogram (EVG) (Example 25); format: in vivo, human; settings: male subjects (ages 20 to 38); 100 fmoles; 1 second pulses; p<0.01; Fig. 6A
# Description: The following electrophysiological studies were performed in 60 clinically normal human volunteers of both sexes (30 male and 30 female) whose ages ranged from 20 to 45 years. No anesthetics were used, and female subjects were excluded if pregnant.
# The stimulation and recording system consists of a "multifunctional miniprobe" described elsewhere (Monti-Bloch, L. and Grosser, B.l. (1991) "Effect of putative pheromones on the electrical activity of the human vomeronasal organ and olfactory epithelium," J. Steroid Biochem. Molec. Biol. 39:573-582.). The recording electrode is a 0.3 mm silver ball attached to a small (0.1 mm) silver wire insulated with Teflon© the surface of the electrode is first treated to produce a silver chloride interface, and is then covered with gelatin It is positioned within a small caliber Teflon© catheter (dia = […]) such that the tip of the electrode protrudes approximately 2 mm. The Teflon© catheter is 10 cm in length and constitutes the terminal extension for a multichannel delivery system which delivers a continuous air stream carrying discreet pulses of chemosensory stimuli. The air stream first passes into a small chamber and is bubbled through a solution containing either a vomeropherin or an olfactant in a diluent or the diluent alone. A solenoid is used to rapidly redirect the air stream from the chamber to a route which bypasses the chamber. This creates a discreet pulse of stimulant in the air stream. A second, outer Teflon® tube with a diameter of 2 mm surrounds the catheter-electrode assemblage, and its central end is connected to an aspirator that provides continuous suction of 3ml/s. This concentric arrangement of the outer suction tube allows the emitted chemosensory stimuli to be localized to an area we call a "minifield" (approx. dia = 1 mm), and it avoids diffusion of substances either to the area outside the intended stimulation site or into the respiratory system. The entire stimulating and recording assemblage may be positioned either on the neurosensory epithelium within the VNO, or on the surface of the olfactory or respiratory epithelium. Electro-vomeronasogram (EVG): Recordings are carried out in a quiet room with the subject supine; the multifunctional miniprobe is initially stabilized within the nasal cavity using a nasal retractor placed in the vestibule. Reference and ground electrodes consist of silver discs (8 mm), both of which are positioned on the glabella.
# The entrance to the VNO, or vomeronasal pit, is identified by first dilating the nasal aperture and vestibule. A 6x magnifying binocular loupe with halogen illumination is then used to introduce the tip of the Teflon® catheter and recording electrode assemblage into the VNO opening where it is stabilized at an approximate depth of 1 mm within the vomeronasal passage. Optimal placement of the recording electrode is signaled after testing for an adequate depolarization in response to a test substance.
# Electrical signals from the recording electrode are fed to a DC amplifier after which they are digitized, computer monitored, and stored. The peak-to-peak amplitude of the signals is measured, and the area under the depolarization wave is integrated, while continuously monitoring the signal both on the computer screen and on a digital oscilloscope. Artifacts produced by respiratory movements are deleted by training the subjects to practice mouth breathing with velopharyngeal closure. Chemosensory Stimulants: Olfactory test substances are cineole, and 1-carvone; vomeropherins are A, B, C, E and F. (Vomeropherins were supplied by Pherin Corporation, Menlo Park, California), Samples of vomeropherins In concentration of 25-800 fmoles are delivered in the continuous air stream for durations from 300 milliseconds to 1 second. Usually, intervals of 3 to 5 minutes separated each series of short test pulses. […]
# VNO [4] = experiment: Skin temperature (ST) after VNO stimulation (Example 25); format: in vivo, human; settings: 30 male subjects; p<0.01; Fig. 6G
# Description: (§1) Cortical evoked activity was induced by VNO stimulation with vomeropherins, and olfactory stimulation with odorants delivered in 300 ms air pulses. It was recorded using standard electroencephalographic (EEG) electrodes placed at positions Cz-A1 and Tz-A1 of the international […] system; the ground electrode was placed on the mastoid process. Electrodermal activity (EDA) was recorded using standard 8 mm silver electrodes in contact with palmar skin of the medial and ring fingers respectively, through a conductive gel interface. Skin temperature (ST) was recorded by a small (1.0 mm) thermistor probe placed in the right ear lobe. Peripheral arterial pulse (PAP) was monitored with a plethysmograph attached to the tip of the index finger. Respiratory frequency (RF) was measured with an adjustable strain gauge placed around the lower thorax. All electrical signals were DC amplified, digitized (MP-100, Biopac Systems) and continuously monitored utilizing a computer. Statistical Analysis: EVGs or EOGS, peak-to-peak changes and frequency changes of other parameters were measured and statistically analyzed. The significance of the results was determined by either using paired t-tests or analysis of variance (ANOVA). […] Recordings of the EVG were performed on 30 men and 30 women (ages 20 to 45). Vomeropherins were diluted and applied as 1 second pulses to the VNO with […] intervals between pulses when questioned, the subjects were not able to "smell" or otherwise consciously detect any of the vomeropherins.
# VNO [5] = experiment: Cortical evoked activity (EEG, alpha cortical activity) after VNO stimulation (Example 25); format: in vivo, human; settings: males, 200 fmoles, Fig. 6E
# Description: as §1
# […] […] Synchronization of the EEG was sustained for 1.5 to 2.7 minutes after application of a single pulse of active substance.
Structure (SMILES),effect of local anesthetic on the EVG (VNO [1]),change in receptor potential (VNO [2]),EVG average response (mean) (VNO [3]) [mV],skin temperature (ST) (VNO [4]),alpha cortical activity (VNO [5]; air pulses 300 ms to 1 sec),latency of increase in alpha cortical activity (VNO [5]) [ms]
CCN(CC)CC(=O)Nc1c(C)cccc1C [lidocaine],neither blocks nor diminishes the EVG,,,,,
"COc1ccc2c(c1)CC[C@@H]1[C@@H]2CC[C@]2(C)C=CC[C@@H]12 [D, 3-Methoxy-Estra-1,3,5(10),16-tetraene]",,"greater change in receptor potential than did 1,3,5(10),16-Estratetraen-3-yl acetate",15.1,significant temperature decrease,significantly increased alpha cortical activity; also recorded: strongest effect,270 to 380
